Assays:
[1] = test system: acyl coenzyme-A:cholesterol-O-acyl transferase (ACAT;EC 2.3.1.26); test: In vitro ACAT inhibition in rat liver microsomes incubated with radiolabelled oleoyl-CoA; format: biochemical
Method: In assays performed in vitro, microsomes (prepared from the livers of rats fed a diet supplemented with 0.5%w/w cholesterol and 0.25%w/w cholic acid for 7 days) were incubated with radiolabelled oleoyl-CoA in the presence of compounds according to the invention at a concentration (in »g/m1) as shown in Table 1.

plasma cholesterol level = test: In vivo inhibition of the increase in plasma cholesterol level in cholesterol/cholic acid-fed rats; details: increase in plasma cholesterol level measured after 3 days, relative to control animals on cholesterol supplemented diet; for inhibition in vivo at 0.01 % strength / inhibition in vivo at 0.03 % strength: Rattus norvegicus, feed or water, 72 h, read-out: In-vivo % Reduction; for inhibition in vivo at 0.01 % strength: dose 0.01 %w/w in diet; for inhibition in vivo at 0.03 % strength / In-vivo % Reduction: dose 0.03 %w/w in diet
[2] = concentration 0.5 »g/m1, microsomes from livers of rats fed 0.5%w/w cholesterol and 0.25%w/w cholic acid for 7 days
[3] = concentration 1.0 »g/m1, microsomes from livers of rats fed 0.5%w/w cholesterol and 0.25%w/w cholic acid for 7 days

SMILES | In-vitro % Inhibition [1, 2] [%] | further results
Cl.Cl.c1ccc(-c2nc(SCCCSc3nc(-c4ccccn4)c(-c4ccccn4)[nH]3)[nH]c2-c2ccccc2)cc1 [Compound K, 1-(4,5-Diphenylimidazol-2-ylthio)-3-[(4,5-dipyrid-2-yl)imidazol-2-ylthio]propane dihydrochloride] | 77 | inhibition in vivo at 0.01 % strength (plasma cholesterol level): 4%
Cn1ccnc1S(=O)(=O)CCCSc1nc(-c2ccccc2)c(-c2ccccc2)[nH]1 [Compound H, 2-[3-(1-Methylimidazol-2-ylsulphonyl)propylthio]-4,5-diphenylimidazole] | 90 | inhibition in vivo at 0.03 % strength (plasma cholesterol level): 108%
c1ccc(-c2nc(SCCCCCCCCCSc3nc(-c4ccccc4)c(-c4ccccc4)[nH]3)[nH]c2-c2ccccc2)cc1 [Compound S, 1,9-Bis(4,5-diphenylimidazol-2-ylthio)nonane] | 77 | –
Cn1ccnc1SCCCCCCCCCSc1nc(-c2ccccc2)c(-c2ccccc2)[nH]1 [Compound T, 2-[9-(1-Methylimidazol-2-ylthio)nonylthio]-4,5-diphenylimidazole] | 91 | –
c1ccc(-c2nc(SCCCSc3ncc[nH]3)[nH]c2-c2ccccc2)cc1 [M, 2-[3-(Imidazol-2-ylthio)propylthio]-4,5-diphenylimidazole] | 95 | inhibition in vivo at 0.01 % strength (plasma cholesterol level): 107%
Cn1ccnc1SCCCCSc1nc(-c2ccccc2)c(-c2ccccc2)[nH]1 [N, 2-[4-(1-Methylimidazol-2-ylthio)butylthio]-4,5-diphenylimidazole] | 94 | inhibition in vivo at 0.03 % strength (plasma cholesterol level): 98%
c1ccc(-c2nc(SCCCSc3ccncc3)[nH]c2-c2ccccc2)cc1 [Compound B, 2-[3-(Pyrid-4-ylthio)propylthio]-4,5-diphenylimidazole] | 90 | inhibition in vivo at 0.03 % strength (plasma cholesterol level): 91%
c1ccc(-c2nc(SCCSc3nc(-c4ccccc4)c(-c4ccccc4)[nH]3)[nH]c2-c2ccccc2)cc1 [E, 1,2-Bis(4,5-diphenylimidazol-2-ylthio)ethane] | – | In-vitro % Inhibition [1, 3]: 88%
Cn1nnnc1SCCCSc1nc(-c2ccccc2)c(-c2ccccc2)[nH]1 [J, 2-[3-(1-Methyltetrazol-5-ylthio)propylthio]-4,5-diphenylimidazole] | 84 | inhibition in vivo at 0.01 % strength (plasma cholesterol level): 17%
Cc1cc(C)nc(SCCCSc2nc(-c3ccccc3)c(-c3ccccc3)[nH]2)n1 [Compound G, 2-[3-(4,6-Dimethylpyrimidin-2-ylthio)propylthio]-4,5-diphenylimidazole] | 80 | –
Cn1cnnc1SCCCSc1nc(-c2ccccc2)c(-c2ccccc2)[nH]1 [Compound I, 2-[3-(4-Methyl-1,2,4-triazol-3-ylthio)propylthio]-4,5-diphenylimidazole] | 84 | inhibition in vivo at 0.01 % strength (plasma cholesterol level): 5%
Cn1ccnc1SCCCSc1nc(-c2ccccc2)c(-c2ccccc2)[nH]1 [C, 2-[3-(1-Methylimidazol-2-ylthio)propylthio]-4,5-diphenylimidazole] | 93 | In-vivo % Reduction (plasma cholesterol level): 66%
Cn1ccnc1SCCCCCCSc1nc(-c2ccccc2)c(-c2ccccc2)[nH]1 [Compound R, 2-[6-(1-Methylimidazol-2-ylthio)hexylthio]-4,5-diphenylimidazole] | 95 | –
Cn1ccnc1S(=O)(=O)CCCCS(=O)(=O)c1nc(-c2ccccc2)c(-c2ccccc2)[nH]1 [Compound O, 2-[4-(1-Methylimidazol-2-ylsulphonyl)butylsulphonyl]-4,5-diphenylimidazole] | 23 | –
c1ccc(-c2nc(SCCCSc3nc(-c4ccccc4)c(-c4ccccc4)[nH]3)[nH]c2-c2ccccc2)cc1 [F, 1,3-Bis(4,5-diphenylimidazol-2-ylthio)propane] | – | In-vitro % Inhibition [1, 3]: 96%; inhibition in vivo at 0.03 % strength (plasma cholesterol level): 72%
Cn1nnnc1S(=O)(=O)CCCSc1nc(-c2ccccc2)c(-c2ccccc2)[nH]1 [Compound L, 2-[3-(1-Methyltetrazol-5-ylsulphonyl)propylthio]-4,5-diphenylimidazole] | 19 | –
c1ccc(-c2nc(SCCCSc3ncccn3)[nH]c2-c2ccccc2)cc1 [A, 2-[3-(Pyrimidin-2-ylthio)propylthio]-4,5-diphenylimidazole] | 88 | inhibition in vivo at 0.03 % strength (plasma cholesterol level): 7%
c1ccc(-c2nc(SCCCCSc3nc(-c4ccccc4)c(-c4ccccc4)[nH]3)[nH]c2-c2ccccc2)cc1 [P, 1,4-Bis(4,5-diphenylimidazol-2-ylthio)butane] | 97 | –
Cl.Cl.Cn1ccnc1SCCCSc1nc(-c2ccccc2)c(-c2ccccc2)[nH]1 [Compound D, 2-[3-(1-Methylimidazol-2-ylthio)propylthio]-4,5-diphenylimidazole dihydrochloride] | – | In-vivo % Reduction (plasma cholesterol level): 88%
C(=C\CSc1nc(-c2ccccc2)c(-c2ccccc2)[nH]1)/CSc1nc(-c2ccccc2)c(-c2ccccc2)[nH]1 [Q, E-1,4-Bis(4,5-diphenylimidazol-2-ylthio)but-2-ene] | 98 | inhibition in vivo at 0.01 % strength (plasma cholesterol level): 74%
